Measurements published in patent publication US20240059729A1, “MULTIFUNCTIONAL CYCLIC DINUCLEOTIDE AND USE THEREOF” (TYLIGAND BIOSCIENCE (SHANGHAI) LIMITED, priority 2020, published 2024).
Structures can show the parent of a compound that is named as a salt.

How the values were obtained:
CT26 cells [1] = assay: Inhibition of proliferation of CT26 cells (CellTiter-Glo); assay type: cell-based, mouse; settings: for IC50: Mus musculus, 120 hours, CellTiter-Glo
Experimental: CT26 cell is a mouse colorectal cancer cell line. This assay used the CellTiter-Glo Luminescence Cell Vitality Assay kit from Promega to evaluate the inhibitory activity of the compounds on the proliferation of CT26 cells.
In thawing the CT26 cells (ATCC #CRL-2638), a cell freezing tube was quickly shaken in a water bath at 37° C. to thaw the cells within 1 min. The thawed cell suspension was taken and evenly mixed with DMEM medium (GE, Cat #SH30243.01) containing 10% FBS (GIBCO, Cat #10099-141), centrifuged for 5 min at 1000 rpm, and the supernatant was discarded. The cell pellet was resuspended in 5 mL of the complete medium (DMEM medium containing 10% FBS), placed into a cell culture flask with a bottom area of 25 cm^2, and incubated in a cell incubator at 37° C., 5% CO2 and 95% humidity. When the cell confluence reached 70%˜80%, the cells were passaged. All the cells in the culture flask were transferred to a 15 mL centrifuge tube, centrifuged for 5 min at 1000 rpm, and the supernatant was discarded. 5 mL of fresh complete medium was added to re-suspend the cell pellet, 1 mL of which was taken to place in a cell culture flask with a bottom area of 25 cm^2, supplemented with 4 mL of fresh complete medium for further incubation. When the cell confluence reached 70%-80% again, plating was conducted following the procedure of cell passage, retaining 1/5 cell suspension for further inculation and remaining 4/5 of the cell suspension in a 15 mL centrifuge tube.
The cell suspension was centrifuged to discard the old culture medium, washed once using DMEM medium (serum-free), and centrifuged to remove the supernatant. The cells were then re-suspended in DMEM medium (serum-free). Cell viability was then detected by Trypan blue exclusion test and to be used for plating when the cell viability was confirmed to be more than 95%. A cell suspension with a density of 1.1×10^4 viable cells/mL was prepared using DMEM medium (serum-free), and 90 μL of the cell suspension was added to a 96-well 96-well transparent flat-bottomed black-walled cell culture plate (Corning, Cat #3603) so that the cell density in the plate was 1000 viable cells/well. A control group containing no cells, no compound, and complete medium only (i.e., a culture medium control), and a control group containing no compound but cells (i.e., a cell control) were set. The cell plates were placed in a cell incubator overnight.
(§1) A 10 mM stock solution of the compounds in DMSO was first serially diluted at 3.16-fold with DMSO (Sigma, Cat #D2650) to the 9th concentration, and the 10th concentration was set as DMSO control (compound-free). Then, the DMSO solutions containing different concentrations of the compounds were diluted at 10-fold with PBS (Solarbio, Cat #P1020) so that the DMSO content in each compound solution of various concentrations was 10%. Finally, 10 μL of each of such solutions was added into corresponding cell culture plate to provide an initial compound concentration of 100 μM, with the dilution fold of adjacent concentrations being 3.16 and the DMSO content in the cell culture plate being 1%. The cell plate was placed in a cell incubator for further 120 hours.
After 120 hours, the CellTiter-Glo reagent (Promega, Cat #G7572) was thawed and the plates were equilibrated at room temperature for 30 min. 100 uL of CellTiter-Glo was added to each well of the plate, and the cells were lysed thoroughly by shaking on an orbital shaker for 5 min. The plates were placed at room temperature for 20 min to stabilize the luminescence signal, and the luminescence value of each well was scanned at full wavelength with a multifunctional microplate reader (Molecular Devices, Spectramax M3). […]

[2] = system: IFN-β secretion by THP-1 cells; assay: Activation of IFN-β secretion by THP-1 cells (Human IFN-beta ELISA); assay type: cell-based; settings: for EC50 / Activating effect on IFN-β secretion / STING agonist activity (in words): THP-1 cells; for EC50: 24 hours, IFN-β ELISA; for Activating effect on IFN-β secretion / STING agonist activity (in words): EC50 compared with 2′,3′-cGAMP and ADU-S100
Experimental: THP-1 cell, a human monocytic leukemia cell line, has the STING phenotype of HAQ type, i.e., R71H-G230A-R293Q. This assay used the Human IFN-beta DuoSet ELISA Kit from R & D (R & D, Cat #DY814-05) and the DuoSet ELISA Ancillary Reagent Kit 2 (R & D, Cat #DY008) to evaluate the activation of IFN-β secretion from THP-1 cells by representative compounds of the invention.
In thawing the THP-1 cells (ATCC #TIB-202), a cell freezing tube was quickly shaken in a water bath at 37° C. to thaw the cells within 1 min. The thawed cell suspension was taken and evenly mixed with an RPMI1640 medium (Hyclone, product #SH30027.01) containing 10% FBS (Life Technology, Cat #10099-141), centrifuged for 5 min at 1000 rpm, and the supernatant was discarded. The cell pellet was resuspended in 5 mL of the complete medium (RPMI 1640 medium containing 10% FBS), placed into a cell culture flask with a bottom area of 25 cm^2, and incubated in a cell incubator at 37° C., 5% CO2 and 95% humidity. When the cell confluence reached about 80%, the cells were passaged. All the cells in the culture flask were transferred to a 15 mL centrifuge tube, centrifuged for 5 min at 1000 rpm, and the supernatant was discarded. 5 mL of fresh complete medium was added to re-suspend the cell pellet, 1 mL of which was taken to place in a cell culture flask with a bottom area of 25 cm^2, supplemented with 4 mL of fresh complete medium for further incubation. When the cell confluence reached about 80% again, plating was conducted following the procedure of cell passage, retaining 1/5 cell suspension for further inculation and remaining 4/5 of the cell suspension in a 15 mL centrifuge tube. The cell suspension was centrifuged to discard the old culture medium, washed once using RPMI1640 culture medium (serum-free), and centrifuged to remove the supernatant. The cells were then re-suspended in RPMI1640 culture medium (serum-free). Cell viability was then detected by Trypan blue exclusion test and to be used for plating when the cell viability was confirmed to be more than 95%. A cell suspension with a density of 1.1×10^6 viable cells/mL was prepared using RPMI1640 culture medium (serum-free), and 180 μL of the cell suspension was added to a 96-well cell culture plate (NUNC Company, Cat #167008) so that the cell density in the plate was 2×10^5 viable cells/well.
as §1, with “the 5th” for “the 9th”, “the 6th” for “the 10th”, “PBS” for “PBS (Solarbio, Cat #P1020)”, “Finally, 20” for “Finally, 10”, “further 24” for “further 120”
ELISA detection was conducted referring to the instructions from R & D System, Cat #DY814-05.
ELISA plate coating: PBS (R & D System Cat #DY006) was used to dilute the capture antibody (mouse anti-human IFN-β capture antibody PART #844508) to provide the working concentration, and 100 μL capture antibody working solution was added to a 96-well ELISA plate which was then sealed and incubated overnight at room temperature. Upon discarding the capture antibody working solution, the cell plate was washed 3 times with a washing buffer (0.05% Tween-20 in PBS, pH 7.2-7.4, R & D System Cat #WA126) at 400 μL of the washing buffer per well, and the washing buffer was thoroughly removed after each washing, with the final washing to be completely removed of the wash buffer by inverting and claping the plate to a clean piece of paper. […]

CT26 cells [3] = assay: Anti-tumor activity in bilateral transplantation tumor model of CT26 syngeneic mouse; assay type: in vivo, BALB/c mice; settings: Day 13 post-dose; 50 μg/mouse intratumorally right side, Day 0 and Day 4
Experimental: BALB/c mice of 6-8 weeks (purchased from Shanghai Ling Chang Biotech Co., Ltd.) were inoculated with 5×10^5 CT26 cells (supplied by Taicang Zexin Biotechnology Co., Ltd., ATCC #CRL-2638) subcutaneously on the left and right back dorsal, respectively, and the inoculation volume was 0.1 mL/side. When tumors grew to an average volume of 100 mm^3, they were randomized according to tumor size and mouse body weight and dosing was initiated. The day of the first dose was Day 0.
Two doses were administered on Day 0 and Day 4, with 50 μg of compound/mouse (i.e., 2.5 mg/kg) injected intratumorally right side, with the same volume of PBS (Hyclone, Cat #SH30258.01) as a control. The tumor on the left side was not treated. The control mice were sacrificed 13 days and the treated mice were sacrificed 21 days, after dosing. During the experiment, tumor volumes on the left and right sides and the body weights were measured 3 times per week, and the tumor volume was calculated as V=D×d×d/2 (where D represents length of tumor and d represents width of tumor).

**Q.** How did the “Inhibitory potency on in vitro growth of CT26 tumor cells (in words)” value (CT26 cells [1]) turn out when `Nc1ccn([C@@H]2O[C@@H]3CO[P@@](=O)(S)OC4[C@@H](CO[P@@](=O)(S)OC3C2(F)F)O[C@@H](n2ccc(N)nc2=O)C4(F)F)c(=O)n1` (stereo partly drawn) [Example 3, (3′,3′)-cyclo-(Rp,Rp)-bis-[3′-O-phosphorothioate-diester-2′-deoxy-2′,2′-difluorocytidine]] was run?
**A.** particularly significant inhibitory potency

**Q.** And the IC50 (CT26 cells [1])?
**A.** < 1 µM

**Q.** Which EC50 ([2]; Homo sapiens, THP-1, 24 h) does the source give for `Nc1nc(Cl)nc2c1ncn2[C@@H]1O[C@@H]2CO[P@@](=O)(S)OC3C(O)[C@@H](CO[P@@](=O)(S)OC2C1F)O[C@H]3n1cnc2c(N)ncnc21` (stereo partly drawn) [Example 5, (2′,3′)-cyclo-(Rp,Rp)-[2′-O-phosphorothioate-diester-adenosine]-[3′-O-phosphorothioate-diester-2-chloro-2′-deoxy-2′-fluoro-beta-adenosine] diammonium salt] here?
**A.** 10.1 to 100 µM

**Q.** What about the IC50 (CT26 cells [1]) of the same compound?
**A.** 1 to 10 µM

**Q.** For `Nc1ncnc2c1ncn2[C@@H]1O[C@@H]2CO[P@@](=O)(S)OC3C(F)[C@H](n4cnc5c(N)nc(Cl)nc54)O[C@@H]3CO[P@@](=O)(S)OC2C1O` (stereo partly drawn) [Example 7, (3′,3′)-cyclo-(Rp,Rp)-[3′-O-phosphorothioate-diester-adenosine]-[3′-O-phosphorothioate-diester-2-chloro-2′-deoxy-2′-fluoro-beta-adenosine] diammonium salt], which IC50 (CT26 cells [1]) is on record?
**A.** 1 to 10 µM

**Q.** How did the EC50 ([2]; Homo sapiens, THP-1, 24 h) turn out when `Nc1nc2c(ncn2[C@@H]2O[C@@H]3CO[P@@](=O)(S)OC4C[C@H](n5cnc6c(N)nc(Cl)nc65)O[C@@H]4CO[P@@](=O)(S)OC2C3O)c(=O)[nH]1` (stereo partly drawn) [Example 12, (2′,3′)-cyclo-(Rp,Rp)-[2′-O-phosphorothioate-diester-guanosine]-[3′-O-phosphorothioate-diester-2-chloro-2′-deoxy-adenosine] diammonium salt] was run?
**A.** 1 to 10 µM

**Q.** And the “Activating effect on IFN-β secretion / STING agonist activity (in words)” value [2]?
**A.** significant STING agonist activity

**Q.** What about the IC50 (CT26 cells [1]) of the same compound?
**A.** 1 to 10 µM

**Q.** And the “Growth inhibition rate, untreated left tumor” value (CT26 cells [3])?
**A.** 75.3%

**Q.** `Nc1ccn([C@@H]2O[C@@H]3CO[P@@](=O)(S)O[C@H]4C(O)[C@@H](CO[P@@](=O)(S)O[C@@H]3C2(F)F)O[C@H]4n2cnc3c(=O)[nH]c(N)nc32)c(=O)n1` (stereo partly drawn) [Example 13, (2′,3′)-cyclo-(Rp,Rp)-[2′-O-phosphorothioate-diester-guanosine]-[3′-O-phosphorothioate-diester-2′-deoxy-2′,2′-difluorocytidine]diammonium salt] was tested. Which EC50 ([2]; Homo sapiens, THP-1, 24 h) did it give?
**A.** 10.1 to 100 µM

**Q.** And the IC50 (CT26 cells [1])?
**A.** < 1 µM

**Q.** How did the EC50 ([2]; diammonium salt) turn out when `Nc1nc2c(ncn2[C@@H]2O[C@@H]3CO[P@@](=O)(S)OC4C(F)[C@H](n5cnc6c(N)nc(Cl)nc65)O[C@@H]4CO[P@](=O)(S)OC3C2O)c(=O)[nH]1` (stereo partly drawn) [Example 16, (3′,3′)-cyclo-(Rp,Rp)-[3′-O-phosphorothioate-diester-guanosine]-[3′-O-phosphorothioate-diester-2-chloro-2′-deoxy-2′-fluoro-beta-adenosine] diammonium salt] was run?
**A.** 1 to 10 µM

**Q.** And the “Activating effect on IFN-β secretion / STING agonist activity (in words)” value [2]?
**A.** significant STING agonist activity

**Q.** And the “Highest concentration of IFN-β secreted by stimulated THP-1 cells” value ([2]; compared with ADU-S100)?
**A.** higher than that of ADU-S100

**Q.** And the IC50 (CT26 cells [1])?
**A.** 1 to 10 µM

**Q.** And the “Growth inhibition rate, untreated left tumor” value (CT26 cells [3])?
**A.** 71.7%

**Q.** `Nc1ccn([C@@H]2O[C@H](CO)[C@@H](O)C2(F)F)c(=O)n1` [Gemcitabine, gemcitabine, reference compound] was tested. Which IC50 (CT26 cells [1]) did it give?
**A.** < 1 µM

**Q.** For `CCCC(CCC)C(=O)Nc1ccn([C@@H]2O[C@H](CO)[C@@H](O)C2(F)F)c(=O)n1` [LY2334737, N4-(2-propylpentanoyl)-2′-deoxy-2′,2′-difluorocytidine, reference compound], which IC50 (CT26 cells [1]) is on record?
**A.** 1 to 10 µM
